Experimental data published in ChEMBL document CHEMBL4823243, “Synergistic induction of apoptosis in resistant head and neck carcinoma and leukemia by alkoxyamide-based histone deacetylase inhibitors” (Eur J Med Chem, 2021).
The source made the active and inactive calls. No cut-off for these calls is given here.

Experiments:
[1] = target: T1, Histone deacetylase (Homo sapiens) (UniProt Q13547+O15379+Q9UBN7+Q92769+Q9UQL6+Q8WUI4+Q9BY41+Q96DB2+P56524+Q9UKV0+Q969S8); assay: Inhibition of HDAC in human CAL-27 cells assessed as combination index at 0.25 uM measured in presence of 5 uM cDDP by MTT-based Chou-Talalay method; assay type: cell-based
[2] = target: T1, Histone deacetylase (Homo sapiens); assay: Inhibition of HDAC in human CAL-27 cells assessed as combination index at 0.25 uM measured in presence of 10 uM cDDP by MTT-based Chou-Talalay method; assay type: cell-based
[3] = target: T1, Histone deacetylase (Homo sapiens); assay: Inhibition of HDAC in human Cal27CisR cells assessed as combination index at 0.3 uM measured in presence of 20 uM cDDP by MTT-based Chou-Talalay method; assay type: cell-based
[4] = target: T1, Histone deacetylase (Homo sapiens); assay: Inhibition of HDAC in human CAL-27 cells assessed as combination index at 0.3 uM measured in presence of 5 uM cDDP by MTT-based Chou-Talalay method; assay type: cell-based
[5] = target: T1, Histone deacetylase (Homo sapiens); assay: Inhibition of HDAC in human CAL-27 cells assessed as combination index at 0.2 uM measured in presence of 5 uM cDDP by MTT-based Chou-Talalay method; assay type: cell-based
[6] = target: Histone deacetylase; assay: Inhibition of HDAC in human CAL-27 cells assessed as potentiation of cisplatin-induced cytotoxicity by measuring cisplatin IC50 at 0.3 to 0.5 uM pretreated for 48 hrs followed by cisplatin addition and measured after 72 hrs by MTT assay (reference value: 3.57 uM); assay type: cell-based
[7] = target: T1, Histone deacetylase (Homo sapiens); assay: Inhibition of HDAC in human Cal27CisR cells assessed as combination index at 0.6 uM measured in presence of 20 uM cDDP by MTT-based Chou-Talalay method; assay type: cell-based
[8] = target: T1, Histone deacetylase (Homo sapiens); assay: Inhibition of HDAC in human CAL-27 cells assessed as combination index at 0.35 uM measured in presence of 2 uM cDDP by MTT-based Chou-Talalay method; assay type: cell-based
[9] = target: T1, Histone deacetylase (Homo sapiens); assay: Inhibition of HDAC in human Cal27CisR cells assessed as combination index at 0.3 uM measured in presence of 50 uM cDDP by MTT-based Chou-Talalay method; assay type: cell-based
[10] = test system: HL-60; assay: Induction of apoptosis in human HL-60 cells assessed as caspase 3/7 activation incubated for 48 hrs by Caspase3/7 detection reagent based assay; assay type: functional, cell-based; details: HL-60, 48 h
[11] = target: T1, Histone deacetylase (Homo sapiens); assay: Inhibition of HDAC in human CAL-27 cells assessed as combination index at 0.4 uM measured in presence of 2 uM cDDP by MTT-based Chou-Talalay method; assay type: cell-based
[12] = test system: CAL-27; assay: Induction of apoptosis in cisplatin resistant human CAL-27 cells assessed as caspase 3 activation at 0.3 uM pretreated for 24 hrs followed by cisplatin treatment and further incubated for 18 hrs by Caspase3/7 detection reagent based assay; assay type: functional, cell-based; details: time 42.0 hrs
[13] = target: T1, Histone deacetylase (Homo sapiens); assay: Inhibition of HDAC in human Cal27CisR cells assessed as combination index at 2 uM measured in presence of 20 uM cDDP by MTT-based Chou-Talalay method; assay type: cell-based
[14] = target: T1, Histone deacetylase (Homo sapiens); assay: Inhibition of HDAC in human Cal27CisR cells assessed as combination index at 2 uM measured in presence of 10 uM cDDP by MTT-based Chou-Talalay method; assay type: cell-based
[15] = target: T1, Histone deacetylase (Homo sapiens); assay: Inhibition of HDAC in human CAL-27 cells assessed as potentiation of cisplatin-induced cytotoxicity by measuring fold reduction in cisplatin IC50 at 2 to 3 uM pretreated for 48 hrs followed by cisplatin addition and measured after 72 hrs by MTT assay relative to cisplatin alone; assay type: cell-based; details: dose 2-3 µM, time 120.0 hrs
[16] = target: T1, Histone deacetylase (Homo sapiens); assay: Inhibition of HDAC in human Cal27CisR cells assessed as combination index at 1.5 uM measured in presence of 50 uM cDDP by MTT-based Chou-Talalay method; assay type: cell-based
[17] = target: Histone deacetylase; assay: Inhibition of HDAC in human Cal27CisR cells assessed as potentiation of cisplatin-induced cytotoxicity by measuring cisplatin IC50 at 2 to 3 uM pretreated for 48 hrs followed by cisplatin addition and measured after 72 hrs by MTT assay (reference value: 3.57 uM); assay type: cell-based
[18] = target: T1, Histone deacetylase (Homo sapiens); assay: Inhibition of HDAC in human CAL-27 cells assessed as combination index at 1 uM measured in presence of 10 uM cDDP by MTT-based Chou-Talalay method; assay type: cell-based
[19] = test system: CAL-27; assay: Induction of apoptosis in cisplatin resistant human CAL-27 cells assessed as caspase 3 activation at 2 uM pretreated for 24 hrs followed by cisplatin treatment and further incubated for 18 hrs by Caspase3/7 detection reagent based assay; assay type: functional, cell-based; details: time 42.0 hrs
[20] = target: T1, Histone deacetylase (Homo sapiens); assay: Inhibition of HDAC in human CAL-27 cells assessed as combination index at 0.5 uM measured in presence of 10 uM cDDP by MTT-based Chou-Talalay method; assay type: cell-based
[21] = target: T1, Histone deacetylase (Homo sapiens); assay: Inhibition of HDAC in human CAL-27 cells assessed as combination index at 1.5 uM measured in presence of 5 uM cDDP by MTT-based Chou-Talalay method; assay type: cell-based
[22] = target: T1, Histone deacetylase (Homo sapiens); assay: Inhibition of HDAC in human Cal27CisR cells assessed as combination index at 1 uM measured in presence of 20 uM cDDP by MTT-based Chou-Talalay method; assay type: cell-based
[23] = target: T1, Histone deacetylase (Homo sapiens); assay: Inhibition of HDAC in human CAL-27 cells assessed as combination index at 1.25 uM measured in presence of 10 uM cDDP by MTT-based Chou-Talalay method; assay type: cell-based
[24] = target: T1, Histone deacetylase (Homo sapiens); assay: Inhibition of HDAC in human Cal27CisR cells assessed as combination index at 3 uM measured in presence of 10 uM cDDP by MTT-based Chou-Talalay method; assay type: cell-based
[25] = target: T1, Histone deacetylase (Homo sapiens); assay: Inhibition of HDAC in human Cal27CisR cells assessed as combination index at 1 uM measured in presence of 50 uM cDDP by MTT-based Chou-Talalay method; assay type: cell-based
[26] = target: T1, Histone deacetylase (Homo sapiens); assay: Inhibition of HDAC in human CAL-27 cells assessed as combination index at 2 uM measured in presence of 5 uM cDDP by MTT-based Chou-Talalay method; assay type: cell-based
[27] = target: T1, Histone deacetylase (Homo sapiens); assay: Inhibition of HDAC in human Cal27CisR cells assessed as potentiation of cisplatin-induced cytotoxicity by measuring fold reduction in cisplatin IC50 at 2 to 3 uM pretreated for 48 hrs followed by cisplatin addition and measured after 72 hrs by MTT assay relative to cisplatin alone; assay type: cell-based; details: dose 2-3 µM, time 120.0 hrs
[28] = test system: CAL-27; assay: Induction of apoptosis in cisplatin resistant human CAL-27 cells assessed as caspase 7 activation at 2 uM in presence cisplatin of pretreated for 24 hrs followed by cisplatin treatment and further incubated for 18 hrs by Caspase3/7 detection reagent based assay; assay type: functional, cell-based; details: time 42.0 hrs
[29] = target: T1, Histone deacetylase (Homo sapiens); assay: Inhibition of HDAC in human CAL-27 cells assessed as combination index at 0.25 uM measured in presence of 2 uM cDDP by MTT-based Chou-Talalay method; assay type: cell-based
[30] = target: T1, Histone deacetylase (Homo sapiens); assay: Inhibition of HDAC in human CAL-27 cells assessed as combination index at 0.1 uM measured in presence of 5 uM cDDP by MTT-based Chou-Talalay method; assay type: cell-based
[31] = target: T1, Histone deacetylase (Homo sapiens); assay: Inhibition of HDAC in human CAL-27 cells assessed as combination index at 0.2 uM measured in presence of 2 uM cDDP by MTT-based Chou-Talalay method; assay type: cell-based

**Q.** What does the source list for `O=C(CCCCCONC(=O)c1ccc2ccccc2n1)NO`?
**A.** CI [1]: 0.94; CI [2]: 0.03; CI [3]: 0.37; CI [4]: 0.06; CI [5]: 1.11; IC50 [6]: 1120 nM; CI [7]: 0.45; CI [8]: 0.68; CI [9]: 0.44; IC50 [10]: 214 nM; CI [11]: 0.48; Activity [12]: Active

**Q.** Which CI [13] does the source give for `O=C(CCCCCONC(=O)c1nccc2ccccc12)NO` here?
**A.** 0.35

**Q.** What about the CI [14] of the same molecule?
**A.** 0.58

**Q.** What about the Ratio IC50 [15] of the same molecule?
**A.** 3.25

**Q.** What about the CI [16] of the same molecule?
**A.** 0.38

**Q.** And the IC50 [17]?
**A.** 4840 nM

**Q.** And the CI [18]?
**A.** 0.34

**Q.** What about the Activity [19] of the same molecule?
**A.** Active

**Q.** What about the CI [20] of the same molecule?
**A.** 0.58

**Q.** What about the CI [21] of the same molecule?
**A.** 0.37

**Q.** And the CI [22]?
**A.** 1.42

**Q.** What about the CI [23] of the same molecule?
**A.** 0.3

**Q.** And the CI [24]?
**A.** 0.24

**Q.** What about the CI [25] of the same molecule?
**A.** 0.47

**Q.** And the CI [26]?
**A.** 0.2

**Q.** What about the Ratio IC50 [27] of the same molecule?
**A.** 10

**Q.** And the Activity [28]?
**A.** Active

**Q.** With `O=C(CCCCCONC(=O)c1cc2ccccc2[nH]1)NO` as the molecule, how does the CI [1] read?
**A.** 0.11

**Q.** And the CI [2]?
**A.** 0.03

**Q.** And the CI [3]?
**A.** 0.29

**Q.** And the CI [4]?
**A.** 0.06

**Q.** What about the CI [5] of the same molecule?
**A.** 0.09

**Q.** And the CI [29]?
**A.** 0.37

**Q.** And the IC50 [6]?
**A.** 1310 nM

**Q.** And the CI [7]?
**A.** 0.24

**Q.** And the CI [8]?
**A.** 0.21

**Q.** What about the CI [30] of the same molecule?
**A.** 0.53

**Q.** What about the CI [9] of the same molecule?
**A.** 0.47

**Q.** What about the CI [11] of the same molecule?
**A.** 0.14

**Q.** And the Activity [12]?
**A.** Active

**Q.** What about the CI [31] of the same molecule?
**A.** 0.63
